The text below walks through data of patent publication US20210196738A1, “PHARMACEUTICAL COMPOSITION COMPRISING A COLLOIDAL DISPERSION AND A THERAPEUTIC AGENT AND METHODS AND USES THEREOF” (priority 2017, published 2021).

By MIC is commonly meant the least concentration at which growth counts as inhibited.

Read-outs that look alike come from different tables or passages of the source.

The experiment concerns E. coli K-12 MG1655 (DA4201). Nature of the experiment: AgSol-antibiotic synergy screening assay / MIC (Ag/Antibiotic screen). It counts as cell-based, Escherichia coli. The note with it: for MIC: Escherichia coli, MG1655, antibiotic alone; for Antibiotic MIC, NB + AgSol1000: antibiotic in combination with AgSol1000 at ¼ × MIC silver; for Fold change (antibiotic MIC, NB vs NB + AgSol1000): dash = MIC unchanged. Here is the method: The MIC (Minimal Inhibitory Concentration) of a bacterium to a certain antimicrobial agent gives a quantitative estimate of the susceptibility. MIC is defined as the lowest concentration of antimicrobial agent required to inhibit growth of the organism. The principle is simple: Agar plates, tubes or microtitre trays with two-fold dilutions of antibiotics are inoculated with a standardized inoculum of the bacteria and incubated under standardized conditions following NCCLS guidelines. The next day, the MIC is recorded as the lowest concentration of antimicrobial agent with no visible growth. The MIC informs you about the degree of resistance and might give you important information about the resistance mechanism and the resistance genes involved. MIC-determination performed as agar dilution is regarded as the gold standard for susceptibility testing (Source: Global Salm-Surv—A global Salmonella surveillance and laboratory support project of the World Health Organization (4th Ed. April 2002, modified November 2010))
The Minimum Inhibitory Concentration (MIC) of nanosilver (silver) was determined by two-fold dilution series in NaCl free Nutrient Broth (Sigma-Aldrich) in 15 ml screw cap tubes. The tubes were incubated in the dark over night at 37° C. without shaking. The MIC was determined as the lowest concentration of nanosilver (silver) at which no visible growth was observed.
Antibiotic stock solutions were serially diluted in 2-fold steps in pre-warmed (37° C.) nutrient broth (NB) to prepare an antibiotic concentration gradient above and below the minimal inhibitory concentration (MIC) of antibiotic (Table 4). 50 μl of prepared dilutions were aliquoted into a 96-well round bottom plate (Nunc, Thermo Fisher) for the screening assay.
Silver formulation (AgSol1000 (particles with 19 Ag per silica particle), AgSol300 (particles with 6 Ag per silica particle, AgNO3), aluminum coated silica beads (159/500 (silica particles with aluminium silicate coating)) and uncoated silica beads (15/500) were diluted in pre-warmed (37° C.) NB. Bindzil®15/500 is an unmodified silica sol, whereas Bindzil®159/500 is a aluminosilicate modified silica sol. Bindzil® is sold by Akzo Nobel AB.
40 μl of the prepared dilutions were added to the 96-well plate containing antibiotic gradient to reach the final silver concentration of ¼×MICAgSol (silver) (specific for the microorganism used) (Table 5).
Overnight (16-20 h) cultures of 3 biological replicates of the following microorganisms E. coli K-12 MG1655 (DA4201), E. coli K-12 MG1655 rpsL K42N (DA49828), Pseudomonas aeruginosa PAO1 (DA6215) or Staphylococcus aureus USA300 JE2 (DA28823) were grown in NB till saturation (37° C. incubator with 190 rpm shaking). Cultures were diluted in NB to 10^7 CFU/ml and 10 μl of the dilution were added to the 96-well plate containing antibiotic gradient and silver formulations or the bead controls to reach the final concentration of 10^5 CFU/well in 100 μl total volume per well. 3 technical replicates (3 wells) of specific antibiotic concentration in combination with silver and microorganism were used. A control plate containing bacterial cells mixed with only antibiotic gradient was always included too.
The prepared plate was incubated in 37° C. incubator without shaking in the dark for 16-20 h and the optical density (OD620) of each well was measured in plate reader Multiscan FC (Thermo Fisher).

Where [1] appears, read: E. coli (DA4201), values used for antibiotic gradient, read-out: MIC.
Setting [2] is: nutrient broth, read-out: Antibiotic MIC, NB.

Consider `CC[C@H]1OC(=O)[C@H](C)[C@@H](O[C@H]2C[C@@](C)(OC)[C@@H](O)[C@H](C)O2)[C@H](C)[C@@H](O[C@@H]2O[C@H](C)C[C@H](N(C)C)[C@H]2O)[C@](C)(O)C[C@@H](C)C(=O)[C@H](C)[C@@H](O)[C@]1(C)O` [Erythromycin], for which the MIC is, setting by setting: under setting [1], 48 µg/mL; under setting [2], 48 µg/mL. Moreover, where the note is “nutrient broth”, the “Antibiotic MIC, NB + AgSol1000” value was 48 µg/mL.

Consider `CC1(C)S[C@@H]2[C@H](NC(=O)[C@H](N)c3ccccc3)C(=O)N2[C@H]1C(=O)O` [Ampicillin], for which the “Fold change (antibiotic MIC, NB vs NB + AgSol1000)” value (“Fold change” below) stood at 2x. The MIC under setting [1] was determined as 4 µg/mL. For the same compound, the MIC under setting [2] amounted to 4 µg/mL. Where the note is “nutrient broth”, the “Antibiotic MIC, NB + AgSol1000” value amounted to 2 µg/mL.

With `CN(C)[C@@H]1C(O)=C(C(N)=O)C(=O)[C@@]2(O)C(O)=C3C(=O)c4c(O)cccc4[C@@](C)(O)[C@H]3C[C@@H]12` [Tetracycline], the MIC stood at 1 µg/mL under setting [1] and 0.5 µg/mL under setting [2]. For the setting “nutrient broth”, the “Antibiotic MIC, NB + AgSol1000” value amounted to 0.5 µg/mL.

As to `NC[C@H]1O[C@H](O[C@H]2[C@H](O)[C@@H](O[C@H]3O[C@H](CO)[C@@H](O)[C@H](N)[C@H]3O)[C@H](N)C[C@@H]2N)[C@H](N)C[C@@H]1O` [Tobramycin], the “Fold change” value came out at 16x. Besides, the MIC under setting [1] was found to be 0.75 µg/mL. Also, the MIC under setting [2] came to 0.75 µg/mL. Moreover, the “fold increase in effect with AgSol vs antibiotic alone” value (Table 6, E. coli) was determined as 16 fold. Further, under “nutrient broth”, the “Antibiotic MIC, NB + AgSol1000” value was 0.047 µg/mL.

For the compound `O=C(N[C@H](CO)[C@H](O)c1ccc([N+](=O)[O-])cc1)C(Cl)Cl` [Chloramphenicol], the “Fold change” value worked out at 2x. Besides, the MIC under setting [1] was 3 µg/mL. In addition, the MIC under setting [2] was 3 µg/mL. Moreover, where the note is “nutrient broth”, the “Antibiotic MIC, NB + AgSol1000” value is 1.5 µg/mL.

`CO/N=C(\C(=O)N[C@@H]1C(=O)N2C(C(=O)O)=C(COC(C)=O)CS[C@H]12)c1csc(N)n1` [Cefotaxime]: the “Fold change” value was 2x. Besides, the MIC under setting [1] came out at 0.094 µg/mL. Under setting [2], the MIC is 0.094 µg/mL. For the same compound, the “Antibiotic MIC, NB + AgSol1000” value (nutrient broth) was found to be 0.047 µg/mL.

In the case of `CO[C@H]1/C=C/O[C@@]2(C)Oc3c(C)c(O)c4c(O)c(c(/C=N/N5CCN(C)CC5)c(O)c4c3C2=O)NC(=O)/C(C)=C\C=C\[C@H](C)[C@H](O)[C@@H](C)[C@@H](O)[C@@H](C)[C@H](OC(C)=O)[C@@H]1C` [Rifampicin], the MIC was 3 µg/mL under setting [1] and 3 µg/mL under setting [2]. In addition, the “Antibiotic MIC, NB + AgSol1000” value (nutrient broth) turned out to be 3 µg/mL.

`O=C(O)c1cn(C2CC2)c2cc(N3CCNCC3)c(F)cc2c1=O` [Ciprofloxacin]: the MIC is, setting by setting: under setting [1], 0.012 µg/mL; under setting [2], 0.012 µg/mL. In addition, the “Antibiotic MIC, NB + AgSol1000” value (nutrient broth) turned out to be 0.012 µg/mL.

Consider `NC[C@H]1O[C@H](O[C@H]2[C@H](O)[C@@H](O[C@H]3O[C@H](CO)[C@@H](O)[C@H](N)[C@H]3O)[C@H](N)C[C@@H]2N)[C@H](O)[C@@H](O)[C@@H]1O` [Kanamycin], for which the “Fold change” value was 4x. Under setting [1], the MIC came to 0.5 µg/mL. For the same compound, the MIC under setting [2] is 0.5 µg/mL. Where the note is “nutrient broth”, the “Antibiotic MIC, NB + AgSol1000” value was determined as 0.12 µg/mL.

With `CN[C@@H]1[C@H](O)[C@H](NC)[C@H]2O[C@@]3(O)C(=O)C[C@@H](C)O[C@H]3O[C@@H]2[C@H]1O` [Spectinomycin], the “Fold change” value is given as 2x. Moreover, under setting [1], the MIC amounted to 12 µg/mL. The MIC under setting [2] worked out at 12 µg/mL. The “Antibiotic MIC, NB + AgSol1000” value (nutrient broth) was 6 µg/mL.
